# Assay results reported in patent EP1490080B1, “medical use of anthocyanins extracted from black rice” (Forbes Medi-Tech Inc., priority 2002, dated 2003).
# What was measured:
# supercoiled DNA [1] = experiment: Peroxyl radical (AAPH) induced supercoiled DNA scission, agarose gel electrophoresis; type: biochemical
# Text: The effects of the anthocyanin composition in preventing DNA oxidation induced by oxidative radicals such as the peroxyl radical and hydroxyl radicals (site specific and non-site specific) were investigated. […] A similar effect was seen by the addition of cyanidin-3-glucoside and peonidin-3-glucoside in combination at various ratios Figure 11).
# (§1) Both peroxyl radical and hydroxyl radical were applied in this test to evaluate the effect of black rice extract of the present invention in preventing DNA scission by 0.7% agarose gel electrophoresis with 0.5µg/ml ethidium bromide using TAE buffer (40mM Tris-acetate, 2mM EDTA, pH8.5). DNA bands were visualized by ultraviolet bench top transilluminator (UVP Inc., Upland, CA) and densities of bands were analyzed by LabWork software (UVP Inc., Upland, CA). The inhibition of DNA nicking was calculated as following equation: %Inh = (Dnative -Dsample)/(Dnative -Doxidative) × 100 [formula]
# (§2) Dnative, Doxidative. Dsample represented the density of DNA without AAPH, DNA with AAPH and DNA with AAPH and test sample, respectively.
# [2] = system: LPS-activated mouse macrophage cell RAW264.7; experiment: Inhibition of nitric oxide (nitrite, Griess reagent) in LPS-activated macrophage cells; type: cell-based; settings: mean±SD, 1µg/ml LPS 24 hr
# Procedure: Mouse macrophage cell RAW 264.7 (ATCC) was cultured in DMEM medium supplemented with 10% fetal bovine serum and antibiotics (100U/ml of penicillin and […]) at 37°C under 5% CO2, Cell was plated at a density of 2×10^5 cells/well into 96-well plates. After overnight growth when cells adhered to the bottom of well, various amount of the black rice extract in PBS and 1µg/ml bacterial lipopolysaccharide (LPS, Escheridchia coli, serotype 0111:B4) were added for another 24 hr. Medium was aliquot (100µl) to another 96-well plate where 100µl of Greiss reagent (1% sulfanilamide in 5% phosphoric acid and 0.1 % naphthylethylenediamine dihydrocholide in water, 1:1 v/v) was then added. Absorbance at 540nm was determined with ELISA plate reader. The concentration of nitrite was measured in according to standard curve obtained from the same procedure. The inhibition of nitric oxide was calculated according to the following equation: %Inhibition = (Abspositive -Abssample)/(Abspositive -Absnegative) × 100 [formula] of which, Abspositive, Absnegative, Abssample represent absorbance of cultural media with LPS, without LPS and sample with LPS.
# Large amount of nitric oxide expression was made possible by using mouse macrophage cell line RAW264.7 co-incubated with bacterial LPS. The measurement of nitric oxide was indirectly measured by its metabolite nitrite in the supernatant of cell cultural media by Griess reagent.
# supercoiled DNA [3] = experiment: DNA nicking induced by non-site specific hydroxyl radical, agarose gel electrophoresis; type: biochemical
# Procedure: (§3) In this hydroxyl radical model, the hydroxyl radical was generated by ascorbic acid mediated Fenton reaction.
# as §1, §2
# (§4) In the present study, we adapted the concept of both non-site specific and site-specific hydroxyl radical and applied these to the DNA scission assays (Figures 10 and 11). It is evident that hydroxyl radical, no matter site-specific or non-site specific broke the integrity of supercoiled DNA strand (lane 2 of Figure 10).
# supercoiled DNA [4] = experiment: DNA nicking induced by site-specific hydroxyl radical, agarose gel electrophoresis; type: biochemical
# Procedure: as §3, §1, §2, §4
SMILES,protection on the DNA strand scission (supercoiled DNA [1]; 1µg/ml) [%],protection on the DNA strand scission (supercoiled DNA [1]; 5µg/ml) [%],"inhibition at 1 µM ([2]; Mus musculus, RAW264.7, 1µM, read-out: Inhibition percentage of nitric oxide) [%]","inhibition at 10 µM ([2]; Mus musculus, RAW264.7, 10µM, read-out: Inhibition percentage of nitric oxide) [%]","inhibition at 100 µM ([2]; Mus musculus, RAW264.7, 100µM, read-out: Inhibition percentage of nitric oxide) [%]",Inhibition percentage of nitric oxide ([2]; 1µM) [%],Inhibition percentage of nitric oxide ([2]; 10µM) [%],Inhibition percentage of nitric oxide ([2]; 100µM) [%],"Inhibition percentage, Non-site specific (supercoiled DNA [3]; 0.17 µg/ml) [%]","Inhibition percentage, Non-site specific (supercoiled DNA [3]; 1.7 µg/ml) [%]","Inhibition percentage, Site specific (supercoiled DNA [4]; 0.17 µg/ml) [%]","Inhibition percentage, Site specific (supercoiled DNA [4]; 1.7 µg/ml) [%]",%Inh (supercoiled DNA [1]; 10µg/ml) [%],recovery of peroxyl radical damage to the supercoiled DNA strand (supercoiled DNA [1]; Figure 10)
"OC[C@H]1O[C@@H](Oc2cc3c(O)cc(O)cc3[o+]c2-c2ccc(O)c(O)c2)[C@H](O)[C@@H](O)[C@@H]1O [Cyanidin-3-glucoside, cyanidin-3-O-glucoside]",11.5,45.3,12.7 ± 2.7,23.1 ± 0.9,72.9 ± 4.8,,,,,,,,,
"COc1cc(-c2[o+]c3cc(O)cc(O)c3cc2O[C@@H]2O[C@H](CO)[C@@H](O)[C@H](O)[C@H]2O)ccc1O [Peonidin-3-glucoside, peonidin-3-O-glucoside]",11.4,44.1,,,,14.4±0.6,22.3±3.7,35.0±2.5,,,,,,
Cc1c(C)c2c(c(C)c1O)CCC(C)(C(=O)O)O2 (stereo not shown) [Trolox],,,,,,,,,44.0,80.8,25.7,61.0,100,partial recovery
